In patent US20250145640A1, “2,2-DIFLUORO-5H-[1,3]DIOXOLO[4,5-F]ISOINDOL-7-ONE DERIVATIVES AS PESTICIDES” (SYNGENTA CROP PROTECTION AG, priority 2021, published 2025):

Assays:
Type in all cases: in vivo
[1] = tested on: Chilo suppressalis (Striped Rice Stemborer); assay: Example B1: Activity against Chilo suppressalis, artificial diet in 24-well microtiter plates; details: 144 h, application rate 200 ppm, L2 larvae, assessed 6 days after infestation, read-out: control (at least one of mortality, anti-feedant effect, growth inhibition)
Procedure: Example B1: Activity Against Chilo suppressalis (Striped Rice Stemborer)
24-well microtiter plates with artificial diet were treated with aqueous test solutions prepared from 10′000 ppm DMSO stock solutions by pipetting. After drying, the plates were infested with L2 larvae (6-8 per well). The samples were assessed for mortality, anti-feeding effect, and growth inhibition in comparison to untreated samples 6 days after infestation. Control of Chilo suppressalis by a test sample is given when at least one of the categories mortality, anti-feedant effect, and growth inhibition is higher than the untreated sample.

[2] = tested on: Myzus persicae (Green peach aphid); assay: Example B4: Activity against Myzus persicae, feeding/contact activity on sunflower leaf discs; details: foliar, 144 h, application rate 200 ppm, aphid population of mixed ages, assessed 6 days after infestation
Procedure: Example B4: Activity against Myzus persicae (Green peach aphid) Feeding/Contact activity Sunflower leaf discs were placed onto agar in a 24-well microtiter plate and sprayed with aqueous test solutions prepared from 10′000 ppm DMSO stock solutions. After drying, the leaf discs were infested with an aphid population of mixed ages. The samples were assessed for mortality 6 days after infestation.

[3] = tested on: Spodoptera littoralis (Egyptian Cotton Leaf Worm); assay: Example B6: Activity against Spodoptera littoralis, sprayed cotton leaf discs on agar; details: foliar, 72 h, application rate 200 ppm, L1 larvae, assessed 3 days after infestation, read-out: control (at least one of mortality, anti-feedant effect, growth inhibition)
Procedure: Example B6: Activity Against Spodoptera littoralis (Egyptian Cotton Leaf Worm)
Cotton leaf discs were placed onto agar in 24-well microtiter plates and sprayed with aqueous test solutions prepared from 10′000 ppm DMSO stock solutions. After drying the leaf discs were infested with five L1 larvae. The samples were assessed for mortality, anti-feeding effect, and growth inhibition in comparison to untreated samples 3 days after infestation. Control of Spodoptera littoralis by a test sample is given when at least one of the categories mortality, anti-feedant effect, and growth inhibition is higher than the untreated sample.

[4] = tested on: Diabrotica Balteata (Corn Root Worm); assay: Example B2: Activity against Diabrotica balteata, sprayed maize sprouts on agar; details: 96 h, application rate 200 ppm, L2 larvae, assessed 4 days after infestation, read-out: effect in at least one of the two categories (mortality or growth inhibition)
Procedure: Example B2: Activity Against Diabrotica Balteata (Corn Root Worm)
Maize sprouts placed onto an agar layer in 24-well microtiter plates were treated with aqueous test solutions prepared from 10′000 ppm DMSO stock solutions by spraying. After drying, the plates were infested with L2 larvae (6 to 10 per well). The samples were assessed for mortality and growth inhibition in comparison to untreated samples 4 days after infestation.

[5] = tested on: Plutella xylostella (Diamond Back Moth); assay: Example B5: Activity against Plutella xylostella, artificial diet in 24-well microtiter plates; details: 192 h, application rate 200 ppm, eggs, assessed 8 days after infestation, read-out: effect in at least one of the two categories (mortality or growth inhibition)
Procedure: Example B5: Activity Against Plutella xylostella (Diamond Back Moth)
24-well microtiter plates with artificial diet were treated with aqueous test solutions prepared from 10′000 ppm DMSO stock solutions by pipetting. After drying, Plutella eggs were pipetted through a plastic stencil onto a gel blotting paper and the plate was closed with it. The samples were assessed for mortality and growth inhibition in comparison to untreated samples 8 days after infestation.

CCS(=O)(=O)c1c(N2Cc3cc4c(cc3C2=O)OC(F)(F)O4)nc2ccc(C(F)(F)F)cn12 [P1, 6-[3-ethylsulfonyl-6-(trifluoromethyl)imidazo[1,2-a]pyridin-2-yl]-2,2-difluoro-5H-[1,3]dioxolo[4,5-f]isoindol-7-one]
≥ 80%: control (mortality, anti-feedant effect or growth inhibition) at 200 ppm [1] | mortality at 200 ppm [2] | percent control (mortality, anti-feedant effect or growth inhibition) at 200 ppm [3] | percent effect (mortality or growth inhibition) at 200 ppm [4] | percent effect (mortality or growth inhibition) at 200 ppm [5]

CCS(=O)(=O)c1c(N2Cc3cc4c(cc3C2=O)OC(F)(F)O4)nn2cc(C(F)(F)F)ccc12 [P3, 6-[3-ethylsulfonyl-6-(trifluoromethyl)pyrazolo[1,5-a]pyridin-2-yl]-2,2-difluoro-5H-[1,3]dioxolo[4,5-f]isoindol-7-one]
≥ 80%: control (mortality, anti-feedant effect or growth inhibition) at 200 ppm [1] | mortality at 200 ppm [2] | percent control (mortality, anti-feedant effect or growth inhibition) at 200 ppm [3] | percent effect (mortality or growth inhibition) at 200 ppm [4] | percent effect (mortality or growth inhibition) at 200 ppm [5]

CCS(=O)(=O)c1c(N2Cc3cc4c(cc3C2=O)OC(F)(F)O4)nc2cc(C(F)(F)F)ccn12 [P5, 6-[3-ethylsulfonyl-7-(trifluoromethyl)imidazo[1,2-a]pyridin-2-yl]-2,2-difluoro-5H-[1,3]dioxolo[4,5-f]isoindol-7-one]
≥ 80%: control (mortality, anti-feedant effect or growth inhibition) at 200 ppm [1] | percent control (mortality, anti-feedant effect or growth inhibition) at 200 ppm [3] | percent effect (mortality or growth inhibition) at 200 ppm [4] | percent effect (mortality or growth inhibition) at 200 ppm [5]

CCS(=O)(=O)c1c(N2Cc3cc4c(cc3C2=O)OC(F)(F)O4)nn2ccc(C(F)(F)F)cc12 [P6, 6-[3-ethylsulfonyl-5-(trifluoromethyl)pyrazolo[1,5-a]pyridin-2-yl]-2,2-difluoro-5H-[1,3]dioxolo[4,5-f]isoindol-7-one]
≥ 80%: control (mortality, anti-feedant effect or growth inhibition) at 200 ppm [1] | percent control (mortality, anti-feedant effect or growth inhibition) at 200 ppm [3] | percent effect (mortality or growth inhibition) at 200 ppm [4] | percent effect (mortality or growth inhibition) at 200 ppm [5]

CCS(=O)(=O)c1c(N2Cc3cc4c(cc3C2=O)OC(F)(F)O4)nc2ccc(C(C)(F)F)cn12 [P7, 6-[6-(1,1-difluoroethyl)-3-ethylsulfonyl-imidazo[1,2-a]pyridin-2-yl]-2,2-difluoro-5H-[1,3]dioxolo[4,5-f]isoindol-7-one]
≥ 80%: control (mortality, anti-feedant effect or growth inhibition) at 200 ppm [1] | percent control (mortality, anti-feedant effect or growth inhibition) at 200 ppm [3] | percent effect (mortality or growth inhibition) at 200 ppm [4] | percent effect (mortality or growth inhibition) at 200 ppm [5]

CCS(=O)(=O)c1c(N2Cc3cc4c(cc3C2=O)OC(F)(F)O4)nc2cc(C(C)(F)F)ccn12 [P8, 6-[7-(1,1-difluoroethyl)-3-ethylsulfonyl-imidazo[1,2-a]pyridin-2-yl]-2,2-difluoro-5H-[1,3]dioxolo[4,5-f]isoindol-7-one]
≥ 80%: control (mortality, anti-feedant effect or growth inhibition) at 200 ppm [1] | percent control (mortality, anti-feedant effect or growth inhibition) at 200 ppm [3] | percent effect (mortality or growth inhibition) at 200 ppm [4] | percent effect (mortality or growth inhibition) at 200 ppm [5]

CCS(=O)(=O)c1c(N2Cc3cc4c(cc3C2=O)OC(F)(F)O4)nc2cc(Br)ccn12 [P9, 6-(7-bromo-3-ethylsulfonyl-imidazo[1,2-a]pyridin-2-yl)-2,2-difluoro-5H-[1,3]dioxolo[4,5-f]isoindol-7-one]
≥ 80%: control (mortality, anti-feedant effect or growth inhibition) at 200 ppm [1] | percent control (mortality, anti-feedant effect or growth inhibition) at 200 ppm [3] | percent effect (mortality or growth inhibition) at 200 ppm [4] | percent effect (mortality or growth inhibition) at 200 ppm [5]

CCS(=O)(=O)c1c(N2Cc3cc4c(cc3C2=O)OC(F)(F)O4)nc2ccc(Br)cn12 [P10, 6-(6-bromo-3-ethylsulfonyl-imidazo[1,2-a]pyridin-2-yl)-2,2-difluoro-5H-[1,3]dioxolo[4,5-f]isoindol-7-one]
≥ 80%: control (mortality, anti-feedant effect or growth inhibition) at 200 ppm [1]

CCS(=O)(=O)c1c(N2Cc3cc4c(cc3C2=O)OC(F)(F)O4)nn2cc(Br)ccc12 [P12, 6-(6-bromo-3-ethylsulfonyl-pyrazolo[1,5-a]pyridin-2-yl)-2,2-difluoro-5H-[1,3]dioxolo[4,5-f]isoindol-7-one]
≥ 80%: control (mortality, anti-feedant effect or growth inhibition) at 200 ppm [1] | mortality at 200 ppm [2] | percent control (mortality, anti-feedant effect or growth inhibition) at 200 ppm [3] | percent effect (mortality or growth inhibition) at 200 ppm [4] | percent effect (mortality or growth inhibition) at 200 ppm [5]

CCS(=O)(=O)c1c(N2Cc3cc4c(cc3C2=O)OC(F)(F)O4)nc2cc(Cl)ccn12 [P13, 6-(7-chloro-3-ethylsulfonyl-imidazo[1,2-a]pyridin-2-yl)-2,2-difluoro-5H-[1,3]dioxolo[4,5-f]isoindol-7-one]
≥ 80%: control (mortality, anti-feedant effect or growth inhibition) at 200 ppm [1] | percent control (mortality, anti-feedant effect or growth inhibition) at 200 ppm [3] | percent effect (mortality or growth inhibition) at 200 ppm [4] | percent effect (mortality or growth inhibition) at 200 ppm [5]

CCS(=O)(=O)c1c(N2Cc3cc4c(cc3C2=O)OC(F)(F)O4)nn2cc(Cl)ccc12 [P14, 6-(6-chloro-3-ethylsulfonyl-pyrazolo[1,5-a]pyridin-2-yl)-2,2-difluoro-5H-[1,3]dioxolo[4,5-f]isoindol-7-one]
≥ 80%: control (mortality, anti-feedant effect or growth inhibition) at 200 ppm [1] | mortality at 200 ppm [2] | percent control (mortality, anti-feedant effect or growth inhibition) at 200 ppm [3] | percent effect (mortality or growth inhibition) at 200 ppm [4] | percent effect (mortality or growth inhibition) at 200 ppm [5]

CCS(=O)(=O)c1c(N2Cc3cc4c(cc3C2=O)OC(F)(F)O4)nc2cc(I)ccn12 [P16, 6-(3-ethylsulfonyl-7-iodo-imidazo[1,2-a]pyridin-2-yl)-2,2-difluoro-5H-[1,3]dioxolo[4,5-f]isoindol-7-one]
≥ 80%: control (mortality, anti-feedant effect or growth inhibition) at 200 ppm [1] | percent control (mortality, anti-feedant effect or growth inhibition) at 200 ppm [3] | percent effect (mortality or growth inhibition) at 200 ppm [4] | percent effect (mortality or growth inhibition) at 200 ppm [5]

CCS(=O)(=O)c1c(N2Cc3cc4c(cc3C2=O)OC(F)(F)O4)nc2ccc(I)cn12 [P17, 6-(3-ethylsulfonyl-6-iodo-imidazo[1,2-a]pyridin-2-yl)-2,2-difluoro-5H-[1,3]dioxolo[4,5-f]isoindol-7-one]
≥ 80%: control (mortality, anti-feedant effect or growth inhibition) at 200 ppm [1] | percent control (mortality, anti-feedant effect or growth inhibition) at 200 ppm [3] | percent effect (mortality or growth inhibition) at 200 ppm [4] | percent effect (mortality or growth inhibition) at 200 ppm [5]
